Source: ChEMBL document CHEMBL5356936, “Restoring susceptibility to aminoglycosides: identifying small molecule inhibitors of enzymatic inactivation” (RSC Med Chem, 2023)

Legend:
[1] = Inhibition of Aminoglycoside N-acetyltransferases (unknown origin)
[2] = Inhibition of Histone acetyltransferase in human Huh-7.5.1 cells assessed as hepatitis C virus-induced EGF mRNA level measured after 72 hrs; settings: Huh-7.5.1, 72 h

IC50 [1] [µM] | IC50 [2] [µM] | SMILES
2.1 |  | CC(CCN[C@H](CN[C@H](CO)CN1CCC[C@H]1CN[C@H](CN)c1ccccc1)c1ccccc1)c1ccccc1 (some centres not stated)
 | 0.39 | O=C(CCCN1CCC(O)(c2ccc(Cl)cc2)CC1)c1ccc(F)cc1 [HALOPERIDOL]
